# According to patent EP2522329A1, “Use of resveratrol and arbutin” (DSM IP Assets B.V., priority 2011, dated 2012):
# Read-outs that look alike come from different tables or passages of the source.
# System: POMC
# Assay: Gene modulation in normal human epidermal melanocytes (NHEM), RT-qPCR PCR array of mRNA expression
# Assay type: cell-based
# Conditions: Melanocyte, 72 h
# Description: Normal human epidermal melanocytes were cultivated for 24 hours. […] Cells were cultivated for additional 72 hours. All experimental conditions were performed in triplicate.
# At the end of the cultivation, the cells were harvested and washed with phosphate buffered saline (PBS) solution and immediately frozen at -80 °C. The expression of selected markers was analyzed using RT-qPCR method on mRNA extracted from cells layer for each treatment condition. The differential expression analysis was performed by PCR arrays of the screening format "mQPA H-Melanocyte-64", which focuses on 64 genes selected for their importance in pigmentation and melanocyte biology.
# Total RNA was extracted from each sample using TRI-Reagent®. The amount and quality of the RNA was evaluated using a lab-on-a-chip Bioanalyzer (Agilent technologies). Potential contaminants traces of DNA were removed […] The incorporation of fluorescence in amplified DNA was measured continuously during the PCR cycles. […] The value selected for RE calculations is the "output point" (Ct) of the fluorescence curve. For a given marker, the highest is the cycle number; the lowest, is the mRNA quantity. The RE value is expressed in arbitrary units (AU) according to the equation: (((1)/(2)))^NC x 10^6 Where NC is the number of cycles. [formula]
structure (smiles),measurement,setting,value
"Oc1ccc(C=Cc2cc(O)cc(O)c2)cc1 [Resveratrol, 3,4',5 trihydroxystilbene]",activation at 5 µg/mL,read-out: POMC expression ratio compared to control,5%
same,activation at 5 µg/mL,read-out: modulation of expression of the gene POMC when compared to untreated cells,5%
